Test results reported in PubChem BioAssay (NCI).
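Test compounds were applied to cells in 96-well plates for 48 hours at 5 doses. Abbreviation: GI50, concentration required for 50% inhibition of growth. At the TGI there is no net growth.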

What was measured:
Assay in all cases: NCI anticancer screen, dose series, 48 h
CCRF-CEM leukemia = system: CCRF-CEM leukemia
OVCAR-8 ovarian = system: OVCAR-8 ovarian
NCI-H226 lung = system: NCI-H226 lung
SNB-75 CNS = system: SNB-75 CNS
SW-620 colon = system: SW-620 colon
M14 melanoma = system: M14 melanoma
HCT-15 colon = system: HCT-15 colon
SR leukemia = system: SR leukemia
HOP-62 NSCLC = system: HOP-62 NSCLC
RXF 393 renal = system: RXF 393 renal

SMILES | TGI (CCRF-CEM leukemia) | TGI (OVCAR-8 ovarian) | TGI (NCI-H226 lung) | TGI (SNB-75 CNS) | TGI (SW-620 colon) | TGI (M14 melanoma) | TGI (HCT-15 colon) | TGI (SR leukemia) | GI50 (CCRF-CEM leukemia) | GI50 (HOP-62 NSCLC) | TGI (HOP-62 NSCLC) | GI50 (OVCAR-8 ovarian) | GI50 (NCI-H226 lung) | GI50 (SNB-75 CNS) | GI50 (SW-620 colon) | GI50 (M14 melanoma) | GI50 (HCT-15 colon) | TGI (RXF 393 renal) | GI50 (RXF 393 renal)
CC1=NN(C(=O)c2ccccc2O)C(=O)/C1=C/c1cccc([N+](=O)[O-])c1 | > 100 µM | > 100 µM | > 100 µM | > 100 µM | > 100 µM | > 100 µM | > 100 µM | > 100 µM | – | – | – | – | – | – | – | – | – | – | –
N[C@@H]1CCCC[C@@H]1N.O=P([O-])([O-])CN(CP(=O)([O-])[O-])CP(=O)([O-])[O-].[Pt+2] | > 100 µM | > 100 µM | > 100 µM | > 100 µM | > 100 µM | > 100 µM | > 100 µM | – | > 100 µM | > 100 µM | > 100 µM | > 100 µM | > 100 µM | > 100 µM | > 100 µM | > 100 µM | > 100 µM | – | –
CCCCCCCCCCCCCCCCOC(=O)c1cc(O)cc(C(=O)OCCCCCCCCCCCCCCCC)c1 | > 100 µM | > 100 µM | > 100 µM | > 100 µM | > 100 µM | > 100 µM | > 100 µM | – | – | – | – | – | – | – | – | – | – | > 100 µM | –
O=C1c2ccccc2C(=O)c2nc3ccc(Cl)cc3cc21 | > 100 µM | > 100 µM | > 100 µM | > 100 µM | > 100 µM | > 100 µM | > 100 µM | > 100 µM | – | – | > 100 µM | – | – | – | – | – | – | – | –
COc1ccc(CCN=C2CCC(C(=O)NCCc3ccc(OC)c(OC)c3)N2)cc1OC (centres undefined) | > 100 µM | > 100 µM | > 100 µM | > 100 µM | > 100 µM | > 100 µM | > 100 µM | – | – | – | > 100 µM | – | – | – | – | – | – | – | –
COc1ccccc1NC(=O)C(CC(C(=O)Nc1ccccc1OC)/C(C)=N/Nc1ccc([N+](=O)[O-])cc1[N+](=O)[O-])/C(C)=N/Nc1ccc([N+](=O)[O-])cc1[N+](=O)[O-] (centres undefined) | > 100 µM | > 100 µM | > 100 µM | > 100 µM | > 100 µM | > 100 µM | > 100 µM | – | – | – | > 100 µM | – | – | – | – | – | – | > 100 µM | –
CCOC(=O)C(NC(=O)c1[nH]cnc1/N=N/N(C)C)C(C)C (centres undefined) | > 100 µM | > 100 µM | > 100 µM | > 100 µM | > 100 µM | > 100 µM | > 100 µM | > 100 µM | – | – | > 100 µM | – | – | – | – | – | – | – | –
C[C@]12CC[C@H](OC3CCCCO3)CC1=CC[C@@H]1C2CC[C@]2(C)/C(=N/O)CCC12 (some centres undefined) | – | 40.5 µM | – | 41.9 µM | > 100 µM | 63.9 µM | 44.5 µM | – | – | – | > 100 µM | – | – | – | – | – | – | 44.8 µM | –
COc1nc(NC2OC(COC(C)=O)C(OC(C)=O)C(OC(C)=O)C2OC(C)=O)c(-c2csc(N)n2)c(=O)n1C (centres undefined) | > 100 µM | > 100 µM | > 100 µM | 51.8 µM | > 100 µM | > 100 µM | > 100 µM | > 100 µM | – | – | > 100 µM | – | – | – | – | – | – | – | –
CCOC(=O)C1COc2cc(-c3cc(=O)c4ccccc4o3)ccc2O1 (centres undefined) | > 100 µM | 93.6 µM | – | > 100 µM | > 100 µM | > 100 µM | – | > 100 µM | – | – | – | – | – | – | – | – | – | > 100 µM | –
CCOC(=O)[C@H]1Nc2ccccc2C2c3ccccc3CC21 (some centres undefined) | – | > 100 µM | > 100 µM | > 100 µM | > 100 µM | > 100 µM | > 100 µM | > 100 µM | – | – | > 100 µM | – | – | – | – | – | – | 31.1 µM | –
CCCCCCCCCCCCCc1nn[nH]n1 | 41.7 µM | 81.1 µM | 45.5 µM | 36 µM | 41.4 µM | 31.5 µM | 34.6 µM | – | – | – | 32.8 µM | – | – | – | – | – | – | 43.4 µM | –
CC1CC[C@]2(C(=O)O)CCC3(C)C(=CCC4[C@@]5(C)CC[C@H](OS(=O)(=O)c6ccccc6)C(C)(C)C5CC[C@]43C)[C@@H]2[C@H]1C (some centres undefined) | > 100 µM | > 100 µM | > 100 µM | > 100 µM | > 100 µM | > 100 µM | – | > 100 µM | – | – | > 100 µM | – | – | – | – | – | – | – | –
CCOc1cc(-c2ccc[nH]2)[nH]c1/C=C1\N=C(C)C(C(=O)OC)=C1C | 1.99 µM | 1.4 µM | 0.044 µM | 0.3 µM | 1.55 µM | 1.18 µM | 0.0705 µM | – | – | 0.0361 µM | 0.294 µM | 0.0329 µM | 0.0185 µM | 0.0364 µM | 0.0321 µM | 0.0348 µM | 0.0148 µM | 0.0881 µM | 0.0219 µM
Cc1cc(Cl)cc2c1NC(=O)C2=O (tested in a mixture with another compound) | 44.9 µM | > 100 µM | > 100 µM | > 100 µM | > 100 µM | > 100 µM | > 100 µM | – | – | – | > 100 µM | – | – | – | – | – | – | > 100 µM | –
COc1ccc(C2CCc3cc4c(cc3/C2=N/OC(C)=O)OCO4)cc1OC (centres undefined) | > 100 µM | > 100 µM | 43.3 µM | 75 µM | > 100 µM | 42.2 µM | > 100 µM | – | – | – | > 100 µM | – | – | – | – | – | – | 54 µM | –
Cc1c(C(=O)CSc2nc3ccccc3[nH]2)c(=O)n(-c2ccccc2)n1C | > 100 µM | > 100 µM | > 100 µM | > 100 µM | > 100 µM | > 100 µM | > 100 µM | > 100 µM | – | – | > 100 µM | – | – | – | – | – | – | – | –
O=C(Cc1ccccc1)NN1C(=O)/C(=C\c2ccc(O)cc2)SC1=Nc1ccccc1 | > 100 µM | > 100 µM | > 100 µM | > 100 µM | > 100 µM | > 100 µM | > 100 µM | – | – | – | > 100 µM | – | – | – | – | – | – | > 100 µM | –
CCC1CNC(=O)CC1CC(=O)OC (centres undefined) | – | – | > 100 µM | > 100 µM | > 100 µM | > 100 µM | > 100 µM | > 100 µM | – | – | > 100 µM | – | – | – | – | – | – | > 100 µM | –
O=C(Cc1csc2nc(-c3ccc(Br)cc3)cn12)N/N=C/c1ccc(O)cc1 | 79.9 µM | 25.9 µM | – | > 100 µM | > 100 µM | 23.7 µM | 61.5 µM | – | 12.2 µM | 18.1 µM | 53.2 µM | 7.07 µM | – | > 100 µM | 31.5 µM | 10.2 µM | 17.9 µM | – | –
C#CCN(Cc1ccc2nc(N)[nH]c(=O)c2c1)c1ccc(C(=O)NC(CCC(=O)O)C(=O)O)cc1 (centres undefined) | > 100 µM | > 100 µM | > 100 µM | – | > 100 µM | > 100 µM | > 100 µM | > 100 µM | – | – | > 100 µM | – | – | – | – | – | – | – | –
